{
  "source": "ChEMBL document CHEMBL1201862",
  "about": "“PubChem BioAssay data set” (2004)",
  "assay_in_all_cases": "inhibition of tumour cell growth, NCI panel, 48 h",
  "key": {"[1]": {"tested_on": "CCRF-CEM"}, "[2]": {"tested_on": "HOP-62"}, "[3]": {"tested_on": "DMS-273"}, "[4]": {"tested_on": "M14"}, "[5]": {"tested_on": "UACC-62"}, "[6]": {"tested_on": "UACC-257"}, "[7]": {"tested_on": "IGROV-1"}, "[8]": {"tested_on": "OVCAR-5"}, "[9]": {"tested_on": "SK-MEL-28"}, "[10]": {"tested_on": "NCI-H226"}, "[11]": {"tested_on": "COLO 205"}, "[12]": {"tested_on": "SR"}, "[13]": {"tested_on": "NCI-H522"}, "[14]": {"tested_on": "NCI-H460"}, "[15]": {"tested_on": "ACHN"}, "[16]": {"tested_on": "XF498"}, "[17]": {"tested_on": "EKVX"}, "[18]": {"tested_on": "HCT-15"}, "[19]": {"tested_on": "DLD-1"}, "[20]": {"tested_on": "RPMI-8226"}, "[21]": {"tested_on": "SK-MEL-5"}, "[22]": {"tested_on": "DMS-114"}, "[23]": {"tested_on": "OVCAR-3"}, "[24]": {"tested_on": "HCT-116"}, "[25]": {"tested_on": "SF-539"}, "[26]": {"tested_on": "RXF 393"}, "[27]": {"tested_on": "OVCAR-4"}, "[28]": {"tested_on": "HOP-92"}, "[29]": {"tested_on": "KM-20L2"}, "[30]": {"tested_on": "UO-31"}, "[31]": {"tested_on": "Malme-3M"}, "[32]": {"tested_on": "A549"}, "[33]": {"tested_on": "HL-60"}, "[34]": {"tested_on": "786-0"}, "[35]": {"tested_on": "SK-MEL-2"}, "[36]": {"tested_on": "TK-10"}, "[37]": {"tested_on": "HT-29"}, "[38]": {"tested_on": "LXFL 529"}, "[39]": {"tested_on": "SNB-75"}, "[40]": {"tested_on": "SNB-78"}, "[41]": {"tested_on": "K562"}, "[42]": {"tested_on": "SNB-19"}, "[43]": {"tested_on": "LOX IMVI"}, "[44]": {"tested_on": "U-251"}, "[45]": {"tested_on": "M19-MEL"}, "[46]": {"tested_on": "MOLT-4"}, "[47]": {"tested_on": "NCI-H23"}, "[48]": {"tested_on": "HCC 2998"}, "[49]": {"tested_on": "A498"}, "[50]": {"tested_on": "OVCAR-8"}, "[51]": {"tested_on": "SF-268"}, "[52]": {"tested_on": "SK-OV-3"}, "[53]": {"tested_on": "SN12C"}},
  "note": "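Dose response: 5 concentrations. Exposure: 48 h. Format: 96-well plates. Endpoint: linear interpolation; highest concentration if not reached. GI50 is the concentration that inhibits growth by half.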 The source made the active and inactive calls. No stated cut-off is given here; in the data, active = GI50 up to about 1.1 µM and inactive = higher.",
  "data": [
    {"smiles": "Cc1ccc(S(=O)(=O)NC(=O)C2(Br)S(=O)(=O)OCCOS2(=O)=O)cc1", "values": [
      {"measurement": "GI50", "setting": "[1]", "value": "> 100 µM (inactive)"},
      {"measurement": "GI50", "setting": "[2]", "value": "> 100 µM (inactive)"},
      {"measurement": "GI50", "setting": "[3]", "value": "> 100 µM (inactive)"},
      {"measurement": "GI50", "setting": "[4]", "value": "> 100 µM (inactive)"},
      {"measurement": "GI50", "setting": "[5]", "value": "> 100 µM (inactive)"},
      {"measurement": "GI50", "setting": "[6]", "value": "> 100 µM (inactive)"},
      {"measurement": "GI50", "setting": "[7]", "value": "> 100 µM (inactive)"},
      {"measurement": "GI50", "setting": "[8]", "value": "> 100 µM (inactive)"},
      {"measurement": "GI50", "setting": "[9]", "value": "> 100 µM (inactive)"},
      {"measurement": "GI50", "setting": "[10]", "value": "> 100 µM (inactive)"},
      {"measurement": "GI50", "setting": "[11]", "value": "> 100 µM (inactive)"},
      {"measurement": "GI50", "setting": "[12]", "value": "> 100 µM (inactive)"},
      {"measurement": "GI50", "setting": "[13]", "value": "> 100 µM (inactive)"},
      {"measurement": "GI50", "setting": "[14]", "value": "> 100 µM (inactive)"},
      {"measurement": "GI50", "setting": "[15]", "value": "> 100 µM (inactive)"},
      {"measurement": "GI50", "setting": "[16]", "value": "> 100 µM (inactive)"},
      {"measurement": "GI50", "setting": "[17]", "value": "> 100 µM (inactive)"},
      {"measurement": "GI50", "setting": "[18]", "value": "> 100", "unit": "µM"},
      {"measurement": "GI50", "setting": "[19]", "value": "> 100 µM (inactive)"},
      {"measurement": "GI50", "setting": "[20]", "value": "> 100 µM (inactive)"},
      {"measurement": "GI50", "setting": "[21]", "value": "> 100 µM (inactive)"},
      {"measurement": "GI50", "setting": "[22]", "value": "> 100 µM (inactive)"},
      {"measurement": "GI50", "setting": "[23]", "value": "> 100 µM (inactive)"},
      {"measurement": "GI50", "setting": "[24]", "value": "> 100 µM (inactive)"},
      {"measurement": "GI50", "setting": "[25]", "value": "> 100 µM (inactive)"},
      {"measurement": "GI50", "setting": "[26]", "value": "> 100 µM (inactive)"},
      {"measurement": "GI50", "setting": "[27]", "value": "> 100 µM (inactive)"},
      {"measurement": "GI50", "setting": "[28]", "value": "> 100 µM (inactive)"},
      {"measurement": "GI50", "setting": "[29]", "value": "> 100 µM (inactive)"},
      {"measurement": "GI50", "setting": "[30]", "value": "> 100 µM (inactive)"},
      {"measurement": "GI50", "setting": "[31]", "value": "> 100 µM (inactive)"},
      {"measurement": "GI50", "setting": "[32]", "value": "> 100 µM (inactive)"},
      {"measurement": "GI50", "setting": "[33]", "value": "> 100 µM (inactive)"},
      {"measurement": "GI50", "setting": "[34]", "value": "> 100 µM (inactive)"},
      {"measurement": "GI50", "setting": "[35]", "value": "> 100 µM (inactive)"},
      {"measurement": "GI50", "setting": "[36]", "value": "> 100 µM (inactive)"},
      {"measurement": "GI50", "setting": "[37]", "value": "> 100 µM (inactive)"},
      {"measurement": "GI50", "setting": "[38]", "value": "> 100 µM (inactive)"},
      {"measurement": "GI50", "setting": "[39]", "value": "> 100 µM (inactive)"},
      {"measurement": "GI50", "setting": "[40]", "value": "> 100 µM (inactive)"},
      {"measurement": "GI50", "setting": "[41]", "value": "> 100 µM (inactive)"},
      {"measurement": "GI50", "setting": "[42]", "value": "> 100 µM (inactive)"},
      {"measurement": "GI50", "setting": "[43]", "value": "> 100 µM (inactive)"},
      {"measurement": "GI50", "setting": "[44]", "value": "> 100 µM (inactive)"},
      {"measurement": "GI50", "setting": "[45]", "value": "> 100 µM (inactive)"},
      {"measurement": "GI50", "setting": "[46]", "value": "> 100 µM (inactive)"},
      {"measurement": "GI50", "setting": "[47]", "value": "> 100 µM (inactive)"},
      {"measurement": "GI50", "setting": "[48]", "value": "> 100 µM (inactive)"},
      {"measurement": "GI50", "setting": "[49]", "value": "> 100 µM (inactive)"},
      {"measurement": "GI50", "setting": "[50]", "value": "> 100 µM (inactive)"},
      {"measurement": "GI50", "setting": "[51]", "value": "> 100 µM (inactive)"},
      {"measurement": "GI50", "setting": "[52]", "value": "> 100 µM (inactive)"},
      {"measurement": "GI50", "setting": "[53]", "value": "> 100 µM (inactive)"}
    ]}
  ]
}
